Blank lines part the entries; values can stand above or below the compound they belong to.
Key:
HCT-116 = test: cells; conditions: Homo sapiens, HCT-116, 24 h
Description: Antiproliferative activity against human HCT-116 cells incubated for 24 hrs in presence of SAHA by MTT assay

NCI-H1975 [1] = test: Inhibition of cell migration in human NCI-H1975 cells measured after 24 to 48 hrs in presence of SAHA by wound healing assay relative to control; format: functional; conditions: time 24-48 hrs
PC-3 = test: Antiproliferative activity against human PC-3 cells incubated for 24 hrs in presence of SAHA by MTT assay; format: functional, cell-based; conditions: PC-3, 24 h
NCI-H2228 [2] = test: Antiproliferative activity against human NCI-H2228 cells incubated for 24 hrs in presence of SAHA by MTT assay; format: functional, cell-based; conditions: NCI-H2228, 24 h
NCI-H1975 [3] = test: Antitumor activity against human NCI-H1975 cells xenografted in BALB/c nude mouse at 10 mg/kg, ip bid treated for 21 days in presence of SAHA relative to control; format: functional; conditions: time 21 day
NCI-H1975 [4] = test: Induction of cell cycle arrest in human NCI-H1975 cells assessed as accumulation at G2/M phase incubated for 48 hrs in presence of SAHA by PI staining based flow cytometry relative to control; format: functional
MCF7 = test: cells; conditions: Homo sapiens, MCF7, 24 h
Description: Antiproliferative activity against human MCF7 cells incubated for 24 hrs in presence of SAHA by MTT assay

MDA-MB-231 [5] = test: cells; conditions: Homo sapiens, MDA-MB-231, 24 h
Description: Antiproliferative activity against human MDA-MB-231 cells incubated for 24 hrs in presence of SAHA by MTT assay

Huh-7 [6] = test: Antiproliferative activity against human Huh-7 cells incubated for 24 hrs in presence of SAHA by MTT assay; format: functional, cell-based; conditions: Huh-7, 24 h
NCI-H1975 [7] = test: Induction of apoptosis in human NCI-H1975 cells incubated for 24 hrs in presence of SAHA by Annexin V-FITC/PI staining based flow cytometry relative to control; format: functional
MDA-MB-231 [8] = test: cells; format: functional, cell-based; conditions: Homo sapiens, MDA-MB-231, 24 h
Huh-7 [9] = test: Antiproliferative activity against human Huh-7 cells incubated for 24 hrs by MTT assay; format: functional, cell-based; conditions: Huh-7, 24 h
[10] = Toxicity BALB/c nude mouse xenografted with human NCI-H1975 cells assessed as body weight loss at 10 mg/kg, ip bid in presence of SAHA treated for 21 days (Rvb > 11.5 %); format: organism-based; conditions: in vivo, 504 h, time 21 day
NCI-H1975 [11] = test: Inhibition of colony formation in human NCI-H1975 cells incubated for 24 hrs followed by re-culturing in fresh medium without compound measured after 14 days in presence of SAHA by crystal violet staining based analysis relative to control; format: functional
NCI-H2228 [12] = test: Antiproliferative activity against human NCI-H2228 cells incubated for 24 hrs by MTT assay; format: functional, cell-based; conditions: NCI-H2228, 24 h
NCI-H1975 [13] = test: Induction of apoptosis in human NCI-H1975 cells at 4 uM incubated for 24 hrs by Annexin V-FITC/PI staining based flow cytometry relative to control; format: functional
NCI-H1975 [14] = test: Induction of cell cycle arrest in human NCI-H1975 cells assessed as accumulation at G2/M phase at 4 uM incubated for 48 hrs in presence of Irinotecan by PI staining based flow cytometry relative to control; format: functional
[15] = Toxicity BALB/c nude mouse xenografted with human NCI-H1975 cells assessed as body weight loss at 100 mg/kg, po qd in presence of Irinotecan treated for 21 days (Rvb > 11.5 %); format: organism-based; conditions: in vivo, 504 h, time 21 day
NCI-H1975 [16] = test: Induction of DNA damage in human NCI-H1975 cells assessed as DNA tail formation at 8 uM incubated for 48 hrs by Comet assay relative to control; format: functional
NCI-H1975 [17] = test: Induction of cell cycle arrest in human NCI-H1975 cells assessed as accumulation at G2/M phase at 4 uM incubated for 48 hrs by PI staining based flow cytometry relative to control; format: functional
NCI-H1975 [18] = test: Induction of apoptosis in human NCI-H1975 cells at 4 uM incubated for 24 hrs in presence of Irinotecan by Annexin V-FITC/PI staining based flow cytometry relative to control; format: functional

IC50 (HCT-116): 730 nM
IC50 (PC-3): 1240 nM
IC50 (NCI-H2228 [2]): 1450 nM
IC50 (MCF7): 970 nM
IC50 (MDA-MB-231 [5]): 1340 nM
IC50 (Huh-7 [6]): 1790 nM
IC50 (MDA-MB-231 [8]): > 8000 nM
IC50 (Huh-7 [9]): > 8000 nM
IC50 (NCI-H2228 [12]): 3480 nM
Structure (SMILES): CCc1c2c(nc3ccc(OC(=O)N4CCC(N5CCCCC5)CC4)cc13)-c1cc3c(c(=O)n1C2)COC(=O)[C@]3(O)CC [IRINOTECAN]
inhibition (INH) (NCI-H1975 [1]): 40.7%
inhibition in vivo at 10 mg/kg (NCI-H1975 [3]; Mus musculus, NCI-H1975, 504 h, read-out: TGI): 65.8%
T/C (NCI-H1975 [3]): 39.1%
Activity (NCI-H1975 [4]): 35%
Activity (NCI-H1975 [7]): 56.1%
Activity [10]: 22.4%
inhibition (INH) (NCI-H1975 [11]): 61.8%

Structure (SMILES): O=C(CCCCCCC(=O)Nc1ccccc1)NO [VORINOSTAT]
Activity (NCI-H1975 [13]): 46%
Activity (NCI-H1975 [14]): 35%
Activity [15]: 22.4%
Activity (NCI-H1975 [16]): 19.4%
Activity (NCI-H1975 [17]): 30.4%
Activity (NCI-H1975 [18]): 56.1%
